From US20250179103A1, “6-OXODECAHYDROPYRROLO[1,2-A][1,5]DIAZOCINE AND 6-OXODECAHYDRO-4H-PYRROLO[2,1-D][1,5]THIAZOCINE DERIVATIVES AS STAT3 AND STAT6 MODULATORS FOR THE TREATMENT OF CANCER AND INFLAMMATORY CONDITIONS” (Recludix Pharma, Inc., priority 2022, published 2025)

What was measured:
[1] = biological target: T1, Recombinant STAT6 protein (STAT6(W123-T658)) (Homo sapiens, UniProt P42226); assay: STAT6 Fluorescence Polarization (FP) Assay; type: binding; details: STAT6(W123-T658) 250 nM, probe 5-FAM-ApYKPFQDLI-NH2 2 nM, 45-minute incubation
T1 construct: Recombinant STAT6 protein (STAT6(W123-T658))
T1 sequence (P42226 123-658): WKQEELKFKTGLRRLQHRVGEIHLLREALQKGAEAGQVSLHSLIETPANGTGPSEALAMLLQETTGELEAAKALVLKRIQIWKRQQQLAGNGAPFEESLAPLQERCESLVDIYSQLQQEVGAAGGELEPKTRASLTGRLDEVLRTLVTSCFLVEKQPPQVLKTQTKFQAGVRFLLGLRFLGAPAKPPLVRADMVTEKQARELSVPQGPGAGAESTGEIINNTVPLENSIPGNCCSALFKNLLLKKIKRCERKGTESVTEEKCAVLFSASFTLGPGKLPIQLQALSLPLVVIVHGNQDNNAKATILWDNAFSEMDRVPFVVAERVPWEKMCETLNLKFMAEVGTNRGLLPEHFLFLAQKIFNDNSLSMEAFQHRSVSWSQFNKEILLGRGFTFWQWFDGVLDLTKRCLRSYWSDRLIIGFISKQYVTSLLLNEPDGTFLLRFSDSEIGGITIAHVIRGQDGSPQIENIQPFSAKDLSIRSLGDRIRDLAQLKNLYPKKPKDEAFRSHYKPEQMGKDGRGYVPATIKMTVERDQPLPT
Outline: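 Displacement of a fluorescent phosphotyrosine peptide (5-FAM-ApYKPFQDLI-NH2, 2 nM) from STAT6(W123-T658) (250 nM), 1% DMSO, pH 7.4 HEPES buffer. After 45 min at room temperature, polarization (mP) was plotted versus log compound concentration and fitted by nonlinear regression to give IC50.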

[2] = biological target: T2, Recombinant STAT3 protein (STAT3(G127-I722)) (Homo sapiens, UniProt P40763); assay: STAT3 Fluorescence Polarization (FP) Assay; type: binding; details: STAT3(G127-I722) 25 nM, probe 5-FAM-GpYLPQTV-NH2 2 nM, 45-minute incubation
T2 construct: Recombinant STAT3 protein (STAT3(G127-I722))
Outline: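 STAT3(G127-I722), 25 nM, was mixed with 2 nM 5-FAM-GpYLPQTV-NH2 probe in HEPES pH 7.4 buffer with 1% DMSO and serially diluted compound. FP (mP) was read after 45 min at room temperature. IC50 came from nonlinear regression.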

T2 sequence (P40763 127-722): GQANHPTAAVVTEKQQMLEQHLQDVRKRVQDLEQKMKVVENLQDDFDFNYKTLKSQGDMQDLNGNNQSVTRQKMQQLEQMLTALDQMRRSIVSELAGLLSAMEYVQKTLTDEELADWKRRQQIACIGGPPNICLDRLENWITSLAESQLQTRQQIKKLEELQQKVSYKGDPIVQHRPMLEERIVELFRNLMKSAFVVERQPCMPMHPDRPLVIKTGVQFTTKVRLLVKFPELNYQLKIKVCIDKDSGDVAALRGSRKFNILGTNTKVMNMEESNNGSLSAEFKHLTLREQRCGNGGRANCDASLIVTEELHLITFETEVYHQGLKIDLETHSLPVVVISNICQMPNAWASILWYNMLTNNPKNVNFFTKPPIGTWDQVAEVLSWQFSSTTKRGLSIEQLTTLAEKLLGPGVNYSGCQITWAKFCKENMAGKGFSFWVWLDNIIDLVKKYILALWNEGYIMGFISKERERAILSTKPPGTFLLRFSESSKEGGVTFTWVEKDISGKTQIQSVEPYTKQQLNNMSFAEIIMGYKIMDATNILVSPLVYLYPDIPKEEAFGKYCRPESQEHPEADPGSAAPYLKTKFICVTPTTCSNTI

| IC50 [1] | IC50 [2] | Compound |
| --- | --- | --- |
| ≤ 0.3 µM | 1 to 10 µM | Cc1ccc2onc(C(=O)N3CC[C@H]4CC[C@@H](C(=O)N5CCN(c6nsc7ccccc67)CC5)N4C(=O)[C@@H](NC(=O)c4ccc5ccc(C(F)P(=O)(O)O)cc5c4)C3)c2c1 (stereo partly drawn) [Compound 369, ((7-(((5S,8S,10aR)-8-(4-(benzo[d]isothiazol-3-yl)piperazine-1-carbonyl)-3-(5-methylbenzo[d]isoxazole-3-carbonyl)-6-oxodecahydropyrrolo [1,2-a][1,5]diazocin-5-yl)carbamoyl)naphthalen-2-yl)fluoromethyl) phosphonic acid] |
| 0.3 to 3 µM | 1 to 10 µM | CC(=O)N1CC[C@H]2CC[C@@H](C(=O)N(C)c3ccc(C4(C)COC4)cc3)N2C(=O)[C@@H](NC(=O)c2cc3cc(C(F)(F)P(=O)(O)O)ccc3s2)C1 [Compound 47, ((2-(((5S,8S,10aR)-3-acetyl-8-(methyl(4-(3-methyloxetan-3-yl)phenyl)carbamoyl)-6-oxodecahydropyrrolo[1,2-a][1,5]diazocin-5-yl)carbamoyl)benzo[b]thiophen-5-yl)difluoromethyl)phosphonic acid] |
| ≤ 0.3 µM | > 10 µM | Cc1ccc2onc(C(=O)N3CC[C@H]4CC[C@@H](C(=O)N5CC6CCC(C5)O6)N4C(=O)[C@@H](NC(=O)c4ccc5ccc([C@H](F)P(=O)(O)O)cc5c4)C3)c2c1 [Compound 377, ((1R)-(7-(((5S,8S,10aR)-8-(8-oxa-3-azabicyclo[3.2.1]octane-3-carbonyl)-3-(5-methylbenzo[d]isoxazole-3-carbonyl)-6-oxodecahydropyrrolo [1,2-a][1,5]diazocin-5-yl)carbamoyl)naphthalen-2-yl)fluoromethyl)phosphonic acid] |
| ≤ 0.3 µM | 1 to 10 µM | N#CC1CN(C(=O)C2CCC3CNCCC(NC(=O)c4ccc5ccc(C(F)(F)P(=O)(O)O)cc5c4)C(=O)N32)CC1c1ccccc1 (mixture of isomers) [Compound 211, ((7-(((5S,8S,10aR)-8-((rel-trans)-3-cyano-4-phenylpyrrolidine-1-carbonyl)-6-oxodecahydropyrrolo[1,2-a][1,4]diazocin-5-yl)carbamoyl)naphthalen-2-yl)difluoromethyl)phosphonic acid] |
| 0.3 to 3 µM | 1 to 10 µM | CC(=O)N1CC[C@H]2CC[C@@H](C(=O)N3CCC3Cc3ccccc3)N2C(=O)[C@@H](NC(=O)c2cc3cc(C(F)(F)P(=O)(O)O)ccc3[nH]2)C1 (stereo partly drawn) [Compound 104, ((2-(((5S,8S,10aR)-3-acetyl-8-(2-benzylazetidine-1-carbonyl)-6-oxodecahydropyrrolo[1,2-a][1,5]diazocin-5-yl)carbamoyl)-1H-indol-5-yl)difluoromethyl)phosphonic acid] |
| 0.3 to 3 µM | 1 to 10 µM | CCN1CC[C@H]2CC[C@@H](C(=O)N3C[C@@H](C#N)[C@H](c4ccccc4)C3)N2C(=O)[C@@H](NC(=O)c2cc3cc(C(F)(F)P(=O)(O)O)ccc3s2)C1 (single isomer, unassigned) [Compound 222, ((2-(((5S,8S,10aR)-8-((3S,4R or 3R,4S)-3-cyano-4-phenylpyrrolidine-1-carbonyl)-3-ethyl-6-oxodecahydropyrrolo[1,2-a][1,5]diazocin-5-yl)carbamoyl)benzo[b]thiophen-5-yl)difluoromethyl)phosphonic acid] |
| 0.3 to 3 µM | 1 to 10 µM | CC(=O)N1CC[C@H]2CC[C@@H](C(=O)N3CCCc4ccccc43)N2C(=O)[C@@H](NC(=O)c2cc3cc(C(F)(F)P(=O)(O)O)ccc3[nH]2)C1 [Compound 57, ((2-(((5S,8S,10aR)-3-acetyl-6-oxo-8-(1,2,3,4-tetrahydroquinoline-1-carbonyl)decahydropyrrolo[1,2-a][1,5]diazocin-5-yl)carbamoyl)-1H-indol-5-yl)difluoromethyl)phosphonic acid] |
| > 30 µM | > 10 µM | CC(=O)N1CC[C@H]2CC[C@@H](C(=O)N(C)c3ccccc3)N2C(=O)[C@@H](NC(=O)c2ccc3ccc(P(=O)(O)O)cc3c2)C1 [Compound 114, (7-(((5S,8S,10aR)-3-acetyl-8-(methyl(phenyl)carbamoyl)-6-oxodecahydropyrrolo[1,2-a][1,5]diazocin-5-yl)carbamoyl)naphthalen-2-yl)phosphonic acid] |
| 0.3 to 3 µM | 1 to 10 µM | CC(=O)N1CC(N(C)C(=O)[C@@H]2CC[C@@H]3CCN(C(C)=O)C[C@H](NC(=O)c4cc5cc(C(F)(F)P(=O)(O)O)ccc5[nH]4)C(=O)N32)C1 [Compound 170, ((2-(((5S,8S,10aR)-3-acetyl-8-((1-acetylazetidin-3-yl)(methyl)carbamoyl)-6-oxodecahydropyrrolo[1,2-a][1,5]diazocin-5-yl)carbamoyl)-1H-indol-5-yl)difluoromethyl)phosphonic acid] |
| 0.3 to 3 µM | ≤ 0.1 µM | CCN1CC[C@H](NC(=O)c2cc3cc(C(F)(F)P(=O)(O)O)ccc3s2)C(=O)N2[C@H](CC[C@H]2C(=O)N2CC(c3cccnc3)C2)C1 [Compound 226, ((2-(((5S,8S,10aR)-2-ethyl-6-oxo-8-(3-(pyridin-3-yl)azetidine-1-carbonyl)decahydropyrrolo[1,2-a][1,4]diazocin-5-yl)carbamoyl)benzo[b]thiophen-5-yl)difluoromethyl)phosphonic acid] |
| 0.3 to 3 µM | 1 to 10 µM | CC(=O)N1CC[C@H]2CC[C@@H](C(=O)Nc3ccc4nnccc4c3)N2C(=O)[C@@H](NC(=O)c2ccc3ccc(C(F)(F)P(=O)(O)O)cc3c2)C1 [Compound 199, ((7-(((5S,8S,10aR)-3-acetyl-8-(cinnolin-6-ylcarbamoyl)-6-oxodecahydropyrrolo[1,2-a][1,5]diazocin-5-yl)carbamoyl)naphthalen-2-yl)difluoromethyl)phosphonic acid] |
| ≤ 0.3 µM | 1 to 10 µM | N#C[C@H]1CN(C(=O)[C@@H]2CC[C@@H]3CN(C(=O)OCc4ccccc4)CC[C@H](NC(=O)c4ccc5ccc(C(F)(F)P(=O)(O)O)cc5c4)C(=O)N32)C[C@@H]1c1ccccc1 (relative stereo) [Compound 213, ((7-(((5S,8S,10aR)-2-((benzyloxy)carbonyl)-8-((rel-trans)-3-cyano-4-phenylpyrrolidine-1-carbonyl)-6-oxodecahydropyrrolo[1,2-a][1,4]diazocin-5-yl)carbamoyl)naphthalen-2-yl)difluoromethyl)phosphonic acid] |
| 3 to 30 µM | 0.1 to 1 µM | O=C(N[C@H]1CNCC[C@H]2CC[C@@H](C(=O)N3CC(C(=O)N4CCOCC4)C3)N2C1=O)c1cc2cc(C(F)(F)P(=O)(O)O)ccc2s1 [Compound 256, (difluoro(2-(((5S,8S,10aR)-8-(3-(morpholine-4-carbonyl)azetidine-1-carbonyl)-6-oxodecahydropyrrolo[1,2-a][1,5]diazocin-5-yl)carbamoyl)benzo[b]thiophen-5-yl)methyl)phosphonic acid] |
| 0.3 to 3 µM | 1 to 10 µM | CC(=O)N1CC[C@H]2CC[C@@H](C(=O)Nc3ccccc3)N2C(=O)[C@@H](NC(=O)c2cc3cc(C(F)(F)P(=O)(O)O)ccc3s2)C1 [Compound 181, ((2-(((5S,8S,10aR)-3-acetyl-6-oxo-8-(phenylcarbamoyl)decahydropyrrolo[1,2-a][1,5]diazocin-5-yl)carbamoyl)benzo[b]thiophen-5-yl)difluoromethyl)phosphonic acid] |
| 0.3 to 3 µM | > 10 µM | COc1cc(C(=O)N[C@H]2CN(C(=O)c3noc4ccc(C)cc34)CC[C@H]3CC[C@@H](C(=O)N4CCOCC4)N3C2=O)cc2cc(CP(=O)(O)O)ccc12 [Compound 388, ((5-methoxy-7-(((5S, 8S,10aR)-3-(5-methylbenzo[d]isoxazole-3-carbonyl)-8-(morpholine-4-carbonyl)-6-oxodecahydropyrrolo [1,2-a][1,5]diazocin-5-yl)carbamoyl)naphthalen-2-yl)methyl) phosphonic acid] |
| 3 to 30 µM | 1 to 10 µM | CC(=O)N1CC[C@H]2CC[C@@H](C(=O)N3CCC(C(=O)N4CCCCC4)CC3)N2C(=O)[C@@H](NC(=O)c2cc3cc(C(F)(F)P(=O)(O)O)ccc3s2)C1 [Compound 192, ((2-(((5S,8S,10aR)-3-acetyl-6-oxo-8-(4-(piperidine-1-carbonyl)piperidine-1-carbonyl)decahydropyrrolo[1,2-a][1,5]diazocin-5-yl)carbamoyl)benzo[b]thiophen-5-yl)difluoromethyl)phosphonic acid] |
